In the NIST ThermoML archive (doi:10.1021/je060257y):
± gives the expanded uncertainty stated by the source.

Assay: molar heat capacity at constant pressure
Details: 101.33 kPa, Crystal

| molar heat capacity at constant pressure (298.15 K) | molar heat capacity at constant pressure (303.15 K) | molar heat capacity at constant pressure (308.15 K) | molar heat capacity at constant pressure (313.15 K) | molar heat capacity at constant pressure (318.15 K) | molar heat capacity at constant pressure (323.15 K) | molar heat capacity at constant pressure (328.15 K) | molar heat capacity at constant pressure (333.15 K) | molar heat capacity at constant pressure (338.15 K) | molar heat capacity at constant pressure (343.15 K) | SMILES |
| --- | --- | --- | --- | --- | --- | --- | --- | --- | --- | --- |
| 144.7 ± 4.5 J/K/mol | 147.9 ± 4.6 J/K/mol | 148.5 ± 4.6 J/K/mol | 151 ± 4.7 J/K/mol | 153.9 ± 4.8 J/K/mol | 157.1 ± 4.9 J/K/mol | 157.9 ± 4.9 J/K/mol | 162 ± 5 J/K/mol | 164.3 ± 5.1 J/K/mol | 164.8 ± 5.1 J/K/mol | O=c1[nH]cc(Br)c(=O)[nH]1 [5-bromouracil] |
| 244.5 ± 7.9 J/K/mol | 248.8 ± 8 J/K/mol | 254 ± 8.1 J/K/mol | 256.5 ± 8.2 J/K/mol | 260.9 ± 8.3 J/K/mol | 266.7 ± 8.4 J/K/mol | 271.2 ± 8.6 J/K/mol | 276.6 ± 8.7 J/K/mol | 282.3 ± 8.8 J/K/mol | 291.5 ± 9.1 J/K/mol | Cc1c(C)n(C)c(=O)n(C)c1=O [2,4(1H,3H)-pyrimidinedione, 1,3,5,6-tetramethyl-] |
| 182.5 ± 5.7 J/K/mol | 185.4 ± 5.7 J/K/mol | 188.7 ± 5.8 J/K/mol | 191.2 ± 5.9 J/K/mol | 193.8 ± 6 J/K/mol | 196.4 ± 6.1 J/K/mol | 199.1 ± 6.2 J/K/mol | 201 ± 6.2 J/K/mol | 203.3 ± 6.3 J/K/mol | 206.8 ± 6.4 J/K/mol | Cn1ccc(=O)n(C)c1=O [1,3-dimethyl-2,4-(1H,3H)-pyrimidinedione] |
| 241.8 ± 9.6 J/K/mol | 243.4 ± 9.7 J/K/mol | 245.3 ± 9.7 J/K/mol | 246.3 ± 9.7 J/K/mol | 248.3 ± 9.8 J/K/mol | 259.6 ± 10 J/K/mol |  |  |  |  | CCc1cc(=O)n(C)c(=O)n1C [2,4(1H,3H)-pyrimidinedione, 6-ethyl-1,3-dimethyl-] |
| 187.4 ± 5.9 J/K/mol | 193.1 ± 6 J/K/mol | 191.4 ± 6 J/K/mol | 193.5 ± 6.1 J/K/mol | 198.4 ± 6.2 J/K/mol | 200.3 ± 6.2 J/K/mol | 202.4 ± 6.3 J/K/mol | 203.8 ± 6.3 J/K/mol | 206 ± 6.4 J/K/mol | 209 ± 6.5 J/K/mol | Cc1cc(=O)n(C)c(=O)[nH]1 [3,6-dimethyluracil] |
| 358.1 ± 14 J/K/mol | 544.2 ± 22 J/K/mol |  |  |  |  |  |  |  |  | CCCCc1cn(C)c(=O)n(C)c1=O [2,4(1H,3H)-pyrimidinedione, 5-butyl-1,3-dimethyl-] |
| 287.2 ± 10 J/K/mol | 288.8 ± 10 J/K/mol | 290.5 ± 10 J/K/mol | 292.2 ± 10 J/K/mol | 293.9 ± 10 J/K/mol | 303.9 ± 10 J/K/mol |  |  |  |  | CCCc1cc(=O)n(C)c(=O)n1C [2,4(1H,3H)-pyrimidinedione, 1,3-dimethyl-6-propyl-] |
| 156.9 ± 4.9 J/K/mol | 167.2 ± 5.2 J/K/mol | 179.6 ± 5.6 J/K/mol | 190.9 ± 5.9 J/K/mol | 200.5 ± 6.2 J/K/mol | 211.1 ± 6.5 J/K/mol | 223 ± 6.9 J/K/mol | 235 ± 7.3 J/K/mol | 245.9 ± 7.6 J/K/mol | 256.1 ± 7.9 J/K/mol | Cn1ccc(=O)[nH]c1=O [1-methyl-2,4(1H,3H)-pyrimidinedione] |
| 131.8 ± 4.7 J/K/mol | 135.5 ± 4.7 J/K/mol | 140.9 ± 4.9 J/K/mol | 143 ± 4.9 J/K/mol | 146.1 ± 5 J/K/mol | 149 ± 5.1 J/K/mol | 151.8 ± 5.1 J/K/mol | 154.3 ± 5.2 J/K/mol | 156.8 ± 5.2 J/K/mol | 157.4 ± 5.3 J/K/mol | O=c1cc[nH]c(=O)[nH]1 [2,4(1H,3H)-pyrimidinedione] |
| 150.9 ± 4.7 J/K/mol | 153.9 ± 4.8 J/K/mol | 156.8 ± 4.9 J/K/mol | 159.8 ± 5 J/K/mol | 162.8 ± 5 J/K/mol | 165.8 ± 5.1 J/K/mol | 168.6 ± 5.2 J/K/mol | 170.3 ± 5.3 J/K/mol | 172.7 ± 5.4 J/K/mol | 177.5 ± 5.5 J/K/mol | O=c1[nH]cc(I)c(=O)[nH]1 [5-iodouracil] |
| 136.7 ± 4.2 J/K/mol | 137.9 ± 4.3 J/K/mol | 142.1 ± 4.4 J/K/mol | 142.9 ± 4.4 J/K/mol | 146.1 ± 4.5 J/K/mol | 147.2 ± 4.6 J/K/mol | 151.2 ± 4.7 J/K/mol | 152.9 ± 4.7 J/K/mol | 154.9 ± 4.8 J/K/mol | 157 ± 4.9 J/K/mol | Oc1ncc(Cl)c(O)n1 [5-chloro-2,4-pyrimidinedione] |
| 188.1 ± 7 J/K/mol | 194.3 ± 7.2 J/K/mol | 197.9 ± 7.2 J/K/mol | 202.6 ± 7.3 J/K/mol | 206.8 ± 7.4 J/K/mol | 211 ± 7.5 J/K/mol | 217.9 ± 7.7 J/K/mol | 225.1 ± 7.9 J/K/mol | 233.1 ± 8 J/K/mol | 239.8 ± 8.2 J/K/mol | Cc1cc(=O)[nH]c(=O)n1C [1,6-dimethyluracil] |
| 138.3 ± 4.7 J/K/mol | 139.1 ± 4.7 J/K/mol | 140 ± 4.7 J/K/mol | 140.9 ± 4.8 J/K/mol | 142 ± 4.8 J/K/mol | 143.6 ± 4.8 J/K/mol | 145.5 ± 4.9 J/K/mol | 147.9 ± 4.9 J/K/mol | 150.6 ± 5 J/K/mol | 153.8 ± 5.1 J/K/mol | O=c1[nH]cc(F)c(=O)[nH]1 [5-fluoro-2,4(1H,3H)-pyrimidinedione] |
| 282.9 ± 8.8 J/K/mol | 291.2 ± 9 J/K/mol | 296.2 ± 9.2 J/K/mol | 305.8 ± 9.5 J/K/mol | 310.9 ± 9.6 J/K/mol | 319.8 ± 9.9 J/K/mol |  |  |  |  | Cn1c2c(c(=O)n(C)c1=O)CCCC2 [1,3-dimethyl-5,6,7,8-tetrahydroquinazoline-2,4(1H,3H)-dione] |
| 212.6 ± 7.2 J/K/mol | 213.5 ± 7.2 J/K/mol | 217.1 ± 7.3 J/K/mol | 218.5 ± 7.4 J/K/mol | 219.8 ± 7.4 J/K/mol | 223.4 ± 7.5 J/K/mol | 228.3 ± 7.6 J/K/mol | 229 ± 7.6 J/K/mol | 236.5 ± 7.8 J/K/mol | 239.6 ± 7.9 J/K/mol | Cc1cc(=O)n(C)c(=O)n1C [1,3,6-trimethyl-2,4(1H,3H)-pyrimidinedione] |
| 167.2 ± 5.2 J/K/mol | 167.9 ± 5.2 J/K/mol | 169.9 ± 5.3 J/K/mol | 169.9 ± 5.3 J/K/mol | 171.1 ± 5.3 J/K/mol | 171.8 ± 5.3 J/K/mol | 173 ± 5.4 J/K/mol | 173.1 ± 5.4 J/K/mol | 174.5 ± 5.4 J/K/mol | 174.5 ± 5.4 J/K/mol | O=[N+]([O-])c1cnc(O)nc1O [2,4-pyrimidinedione, 5-nitro-] |
| 187.6 ± 5.8 J/K/mol | 190 ± 5.9 J/K/mol | 190.3 ± 5.9 J/K/mol | 194.1 ± 6 J/K/mol | 194.8 ± 6 J/K/mol | 198.5 ± 6.2 J/K/mol | 199.2 ± 6.2 J/K/mol | 202 ± 6.3 J/K/mol | 203 ± 6.3 J/K/mol | 205.2 ± 6.4 J/K/mol | Cc1cn(C)c(=O)[nH]c1=O [1,5-dimethyluracil] |
